Measurements taken from the NIST ThermoML archive (doi:10.1021/acs.jced.8b00975).

Assay: xn = mol fraction of the nth substance listed
Details: Liquid, Vibrating tube method

C=C(C)C(=O)OCCN(C)C [2-(dimethylamino)ethyl methylpropenoate] + CCCCCO
mass density [kg/m3]
Details	100 kPa	5000 kPa	10000 kPa	15000 kPa	20000 kPa	25000 kPa	30000 kPa	35000 kPa
293.15 K, x1 = 0.0299	821.4	824.97	828.31	831.49	834.52	837.46	840.35	843.21
293.15 K, x1 = 0.0601	827.36	830.88	834.21	837.36	840.4	843.36	846.28	849.21
293.15 K, x1 = 0.1006	834.83	838.39	841.73	844.91	847.96	850.92	853.82	856.7
293.15 K, x1 = 0.2011	851.81	855.36	858.7	861.88	864.94	867.91	870.84	873.77
293.15 K, x1 = 0.3004	866.6	870.17	873.54	876.75	879.84	882.84	885.78	888.7
293.15 K, x1 = 0.402	879.66	883.27	886.67	889.9	893.01	896.03	899.02	902
293.15 K, x1 = 0.4518	885.55	889.17	892.6	895.88	899.03	902.08	905.07	908.03
293.15 K, x1 = 0.5004	890.97	894.63	898.09	901.38	904.54	907.61	910.63	913.62
293.15 K, x1 = 0.5486	896.13	899.78	903.24	906.53	909.71	912.79	915.83	918.85
293.15 K, x1 = 0.601	901.42	905.08	908.55	911.86	915.05	918.14	921.18	924.2
293.15 K, x1 = 0.7021	910.74	914.43	917.91	921.22	924.41	927.53	930.63	933.76
293.15 K, x1 = 0.8019	918.94	922.6	926.1	929.46	932.72	935.91	939.06	942.19
293.15 K, x1 = 0.9008	926.27	929.96	933.48	936.87	940.15	943.35	946.5	949.63
293.15 K, x1 = 0.9306	928.32	932.04	935.56	938.93	942.19	945.38	948.54	951.72
293.15 K, x1 = 0.9645	930.63	934.34	937.87	941.25	944.51	947.7	950.84	953.97
303.15 K, x1 = 0.0307	814.24	818.14	821.74	825.07	828.2	831.19	834.07	836.92
303.15 K, x1 = 0.0604	819.89	823.73	827.29	830.63	833.79	836.81	839.72	842.58
303.15 K, x1 = 0.1009	827.11	830.9	834.46	837.81	841.01	844.07	847.03	849.93
303.15 K, x1 = 0.2025	843.87	847.62	851.18	854.56	857.79	860.91	863.93	866.88
303.15 K, x1 = 0.3	857.94	861.71	865.28	868.68	871.95	875.13	878.24	881.32
303.15 K, x1 = 0.3999	870.67	874.45	878.06	881.52	884.85	888.08	891.24	894.35
303.15 K, x1 = 0.4506	876.6	880.36	883.98	887.47	890.84	894.11	897.3	900.41
303.15 K, x1 = 0.5037	882.4	886.19	889.83	893.35	896.76	900.07	903.29	906.44
303.15 K, x1 = 0.5495	887.14	890.94	894.58	898.1	901.5	904.82	908.07	911.28
303.15 K, x1 = 0.6012	892.24	896.07	899.73	903.25	906.65	909.98	913.25	916.5
303.15 K, x1 = 0.7014	901.28	905.16	908.86	912.4	915.83	919.2	922.54	925.89
303.15 K, x1 = 0.8023	909.34	913.19	916.92	920.53	924.05	927.5	930.88	934.23
303.15 K, x1 = 0.9025	916.57	920.44	924.19	927.82	931.37	934.86	938.3	941.71
303.15 K, x1 = 0.9307	918.44	922.34	926.12	929.8	933.38	936.89	940.33	943.73
303.15 K, x1 = 0.9625	920.67	924.56	928.32	931.98	935.55	939.05	942.5	945.92
313.15 K, x1 = 0.0305	806.61	810.57	814.26	817.73	821.04	824.24	827.39	830.53
313.15 K, x1 = 0.0602	812.04	816	819.71	823.21	826.55	829.77	832.92	836.03
313.15 K, x1 = 0.1004	819.08	823.09	826.82	830.32	833.66	836.89	840.06	843.25
313.15 K, x1 = 0.2011	835.38	839.35	843.09	846.64	850.04	853.32	856.53	859.71
313.15 K, x1 = 0.2999	849.45	853.38	857.13	860.71	864.15	867.48	870.73	873.91
313.15 K, x1 = 0.4001	862.05	866.03	869.81	873.43	876.91	880.27	883.53	886.72
313.15 K, x1 = 0.4514	867.85	871.88	875.71	879.36	882.87	886.24	889.51	892.71
313.15 K, x1 = 0.498	872.93	876.96	880.8	884.47	888	891.4	894.7	897.93
313.15 K, x1 = 0.5495	878.17	882.25	886.12	889.81	893.35	896.76	900.07	903.31
313.15 K, x1 = 0.5984	882.9	887.01	890.9	894.6	898.15	901.58	904.91	908.18
313.15 K, x1 = 0.7004	892.03	896.09	900.01	903.79	907.43	910.93	914.29	917.51
313.15 K, x1 = 0.8001	900.15	904.24	908.18	911.97	915.62	919.14	922.52	925.76
313.15 K, x1 = 0.8995	907.42	911.49	915.45	919.28	922.99	926.57	930.03	933.36
313.15 K, x1 = 0.9328	909.62	913.75	917.76	921.63	925.35	928.93	932.36	935.63
313.15 K, x1 = 0.9616	911.53	915.62	919.61	923.5	927.26	930.88	934.33	937.6
